Assays:
[1] = target: T1, JAK3 (Homo sapiens, UniProt P52333); experiment: Inhibition of a panel of kinases, in vitro HotSpot kinase assay: JAK3; type: biochemical; conditions: D-compounds panel data; 1 μM ATP; read-out: IC50 JAK3
T1 sequence (P52333 1-1124): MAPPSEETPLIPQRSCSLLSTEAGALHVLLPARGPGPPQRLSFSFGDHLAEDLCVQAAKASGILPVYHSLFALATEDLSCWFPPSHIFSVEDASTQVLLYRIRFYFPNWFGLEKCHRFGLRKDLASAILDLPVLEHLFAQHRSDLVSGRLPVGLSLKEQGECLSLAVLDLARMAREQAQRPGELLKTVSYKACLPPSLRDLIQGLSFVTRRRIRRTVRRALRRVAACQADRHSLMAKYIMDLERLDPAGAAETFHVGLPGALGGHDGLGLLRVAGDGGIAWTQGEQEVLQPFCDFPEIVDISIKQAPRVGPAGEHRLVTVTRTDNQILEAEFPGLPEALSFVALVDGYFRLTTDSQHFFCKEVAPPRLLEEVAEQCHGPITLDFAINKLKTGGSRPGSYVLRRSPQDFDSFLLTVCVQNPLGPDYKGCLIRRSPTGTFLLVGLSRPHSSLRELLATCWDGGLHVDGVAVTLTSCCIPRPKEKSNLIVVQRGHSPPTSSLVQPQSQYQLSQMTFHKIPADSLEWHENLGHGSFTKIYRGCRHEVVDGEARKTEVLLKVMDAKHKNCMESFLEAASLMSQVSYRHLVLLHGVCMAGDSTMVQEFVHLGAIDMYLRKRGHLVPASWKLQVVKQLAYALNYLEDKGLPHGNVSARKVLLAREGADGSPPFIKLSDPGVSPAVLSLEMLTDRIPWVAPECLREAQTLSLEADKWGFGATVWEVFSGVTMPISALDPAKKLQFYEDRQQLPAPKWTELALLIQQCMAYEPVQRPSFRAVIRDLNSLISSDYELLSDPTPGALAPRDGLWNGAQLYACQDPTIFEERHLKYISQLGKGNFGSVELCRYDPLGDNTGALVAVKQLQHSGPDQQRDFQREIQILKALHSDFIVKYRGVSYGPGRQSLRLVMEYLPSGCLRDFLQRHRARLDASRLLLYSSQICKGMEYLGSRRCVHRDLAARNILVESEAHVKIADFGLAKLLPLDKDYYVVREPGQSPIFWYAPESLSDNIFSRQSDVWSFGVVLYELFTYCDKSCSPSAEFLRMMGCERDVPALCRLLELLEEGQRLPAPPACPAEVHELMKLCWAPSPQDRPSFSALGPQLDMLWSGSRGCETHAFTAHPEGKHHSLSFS

[2] = target: LCK (Homo sapiens, UniProt P06239); experiment: Inhibition of a panel of kinases, in vitro HotSpot kinase assay: LCK; type: biochemical; conditions: D-compounds panel data; 1 μM ATP; read-out: IC50 LCK
Sequence of LCK (P06239 whole entry): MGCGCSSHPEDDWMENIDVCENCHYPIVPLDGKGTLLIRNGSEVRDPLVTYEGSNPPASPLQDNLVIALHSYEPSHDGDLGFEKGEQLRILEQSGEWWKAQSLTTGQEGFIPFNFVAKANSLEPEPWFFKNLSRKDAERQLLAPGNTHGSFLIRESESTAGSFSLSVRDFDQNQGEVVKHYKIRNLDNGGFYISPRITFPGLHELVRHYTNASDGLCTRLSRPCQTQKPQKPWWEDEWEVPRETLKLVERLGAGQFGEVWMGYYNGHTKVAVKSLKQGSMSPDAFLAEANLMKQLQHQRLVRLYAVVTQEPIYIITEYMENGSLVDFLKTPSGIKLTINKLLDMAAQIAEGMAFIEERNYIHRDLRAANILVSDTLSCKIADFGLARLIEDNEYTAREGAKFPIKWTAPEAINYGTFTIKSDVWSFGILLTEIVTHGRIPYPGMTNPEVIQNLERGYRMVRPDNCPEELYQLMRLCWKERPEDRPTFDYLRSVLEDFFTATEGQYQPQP

| Structure (SMILES) | IC50 [1] [nM] | IC50 [2] [nM] |
| --- | --- | --- |
| C[C@@H]1[C@H](NC(=O)c2ccc(C3CC3)cc2)CCCN1c1cnc(C(N)=O)c(Nc2ccc(N3CCC4(CC3)COC4)cc2)n1 [Example D-99, 5-[(2R,3R)-3-(4-cyclopropylbenzamido)-2-methylpiperidin-1-yl]-3-[(4-{2-oxa-7-azaspiro[3.5]nonan-7-yl}phenyl)amino]pyrazine-2-carboxamide] | 100 to 1000 | 100 to 1000 |
| C[C@@H]1[C@H](NC(=O)c2ccc(C3CC3)cc2)CCCN1c1cnc(C(N)=O)c(Nc2ccc(N3CCC(C(C)(C)O)CC3)cc2)n1 [Example D-100, 5-[(2R,3R)-3-(4-cyclopropylbenzamido)-2-methylpiperidin-1-yl]-3-({4-[4-(2-hydroxypropan-2-yl)piperidin-1-yl]phenyl}amino)pyrazine-2-carboxamide] | 1000 to 10000 | 100 to 1000 |
| C[C@@H]1[C@H](NC(=O)c2ccc(C3CC3)cc2)CCCN1c1cnc(C(N)=O)c(Nc2ccc(N3CCN(C)CC3)cc2F)n1 [Example D-103, 5-[(2R,3R)-3-(4-cyclopropylbenzamido)-2-methylpiperidin-1-yl]-3-{[2-fluoro-4-(4-methylpiperazin-1-yl)phenyl]amino}pyrazine-2-carboxamide] | > 10000 | 100 to 1000 |
| C[C@@H]1[C@H](NC(=O)c2ccc(C3CC3)cc2)CCCN1c1cnc(C(N)=O)c(Nc2ccc(OC3C[C@H]4CC[C@@H](C3)N4C)cc2)n1 (stereo partly drawn) [Example D-104, 5-[(2R,3R)-3-(4-cyclopropylbenzamido)-2-methylpiperidin-1-yl]-3-[(4-{[(1R,5S)-8-methyl-8-azabicyclo[3.2.1]octan-3-yl]oxy}phenyl)amino]pyrazine-2-carboxamide] | 100 to 1000 | 10 to 100 |
| C[C@@H]1[C@H](NC(=O)c2ccc(C3CC3)cc2)CCCN1c1cnc(C(N)=O)c(Nc2ccc(OC3C[C@H]4CC[C@@H](C3)N4C)cc2)n1 (stereo partly drawn) [Example D-106, 5-[(2R,3R)-3-(4-cyclopropylbenzamido)-2-methylpiperidin-1-yl]-3-[(4-{[(1R,5S)-8-methyl-8-azabicyclo[3.2.1]octan-3-yl]oxy}phenyl)amino]pyrazine-2-carboxamide] | 100 to 1000 | 10 to 100 |
| CC(=O)NC(C)(C)c1ccc(C(=O)N[C@@H]2CCCN(c3cnc(C(N)=O)c(Nc4cnn(C)c4)n3)[C@@H]2C)cc1 [Example D-107, 5-[(2R,3R)-3-[4-(2-acetamidopropan-2-yl)benzamido]-2-methylpiperidin-1-yl]-3-[(1-methyl-1H-pyrazol-4-yl)amino]pyrazine-2-carboxamide] | 1000 to 10000 | 100 to 1000 |
| C[C@@H]1[C@H](NC(=O)c2ccc(C(C)(C)N(C)C)cc2)CCCN1c1cnc(C(N)=O)c(Nc2cnn(C)c2)n1 [Example D-108, 5-[(2R,3R)-3-{4-[2-(dimethylamino)propan-2-yl]benzamido}-2-methylpiperidin-1-yl]-3-[(1-methyl-1H-pyrazol-4-yl)amino]pyrazine-2-carboxamide] | > 10000 | 100 to 1000 |
| C[C@@H]1[C@H](NC(=O)N(C)C)CCCN1c1cnc(C(N)=O)c(Nc2ccc(C(=O)N3CCN(C)CC3)cc2)n1 [Example D-110, 5-[(2R,3R)-3-[(dimethylcarbamoyl)amino]-2-methylpiperidin-1-yl]-3-{[4-(4-methylpiperazine-1-carbonyl)phenyl]amino}pyrazine-2-carboxamide] | 1000 to 10000 | 100 to 1000 |
| C[C@@H]1[C@H](NC(=O)c2ccc(C3CC3)cc2)CCCN1c1cnc(C(N)=O)c(Nc2ccc(C3(C)CCN(C4CCCC4)CC3)cc2)n1 [Example D-112, 3-{[4-(1-cyclopentyl-4-methylpiperidin-4-yl)phenyl]amino}-5-[(2R,3R)-3-(4-cyclopropylbenzamido)-2-methylpiperidin-1-yl]pyrazine-2-carboxamide] | 100 to 1000 | < 10 |
| C[C@@H]1[C@H](NC(=O)N(C)C)CCCN1c1cnc(C(N)=O)c(Nc2cc(CN3CCOCC3)ns2)n1 [Example D-118, 5-[(2R,3R)-3-[(dimethylcarbamoyl)amino]-2-methylpiperidin-1-yl]-3-{[3-(morpholin-4-ylmethyl)-1,2-thiazol-5-yl]amino}pyrazine-2-carboxamide] | 1000 to 10000 | 100 to 1000 |

More lines, now with the values ahead:

| IC50 [1] [nM] | IC50 [2] [nM] | Structure (SMILES) |
| --- | --- | --- |
| 1000 to 10000 | > 10000 | C[C@@H]1[C@H](NC(=O)c2ccc(C3CC3)cc2)CCCN1c1cnc(C(N)=O)c(Nc2ccc(OC3CCN(CC(F)(F)F)CC3)cc2)n1 [Example D-98, 5-[(2R,3R)-3-(4-cyclopropylbenzamido)-2-methylpiperidin-1-yl]-3-[(4-{[1-(2,2,2-trifluoroethyl)piperidin-4-yl]oxy}phenyl)amino]pyrazine-2-carboxamide] |
| 1000 to 10000 | 10 to 100 | C[C@@H]1[C@H](NC(=O)c2ccc(C3CC3)cc2)CCCN1c1cnc(C(N)=O)c(Nc2ccc(OC3CCN(C4CCCC4)CC3)cc2)n1 [Example D-101, 3-({4-[(1-cyclopentylpiperidin-4-yl)oxy]phenyl}amino)-5-[(2R,3R)-3-(4-cyclopropylbenzamido)-2-methylpiperidin-1-yl]pyrazine-2-carboxamide] |
| 100 to 1000 | 10 to 100 | C[C@@H]1[C@H](NC(=O)N(C)C)CCCN1c1cnc(C(N)=O)c(Nc2ccc(OC3CCN(C4CCCC4)CC3)cc2)n1 [Example D-102, 3-({4-[(1-cyclopentylpiperidin-4-yl)oxy]phenyl}amino)-5-[(2R,3R)-3-[(dimethylcarbamoyl)amino]-2-methylpiperidin-1-yl]pyrazine-2-carboxamide] |
| 100 to 1000 | 10 to 100 | C[C@@H]1[C@H](NC(=O)c2ccc(C3CC3)cc2)CCCN1c1cnc(C(N)=O)c(Nc2ccc(OC3CCCN(C)C3)cc2)n1 (stereo partly drawn) [Example D-105, 5-[(2R,3R)-3-(4-cyclopropylbenzamido)-2-methylpiperidin-1-yl]-3-({4-[(1-methylpiperidin-3-yl)oxy]phenyl}amino)pyrazine-2-carboxamide] |
| 1000 to 10000 | 100 to 1000 | CNC(=O)N[C@@H]1CCCN(c2cnc(C(N)=O)c(Nc3cnn(C)c3)n2)[C@@H]1C [Example D-109, 3-[(1-methyl-1H-pyrazol-4-yl)amino]-5-[(2R,3R)-2-methyl-3-[(methylcarbamoyl)amino]piperidin-1-yl]pyrazine-2-carboxamide] |
| 100 to 1000 | 100 to 1000 | C[C@@H]1[C@H](NC(=O)N(C)C)CCCN1c1cnc(C(N)=O)c(Nc2ccc(N3CCN(C)CC3)cc2)n1 [Example D-111, 5-[(2R,3R)-3-[(dimethylcarbamoyl)amino]-2-methylpiperidin-1-yl]-3-{[4-(4-methylpiperazin-1-yl)phenyl]amino}pyrazine-2-carboxamide] |
| 100 to 1000 | 10 to 100 | C[C@@H]1[C@H](NC(=O)c2ccc(C3CC3)cc2F)CCCN1c1cnc(C(N)=O)c(Nc2ccc(CN3CCN(C)CC3)cc2)n1 [Example D-113, 5-[(2R,3R)-3-(4-cyclopropyl-2-fluorobenzamido)-2-methylpiperidin-1-yl]-3-({4-[(4-methylpiperazin-1-yl)methyl]phenyl}amino)pyrazine-2-carboxamide] |
| > 10000 | > 10000 | C[C@@H]1[C@H](NC(=O)c2ccc(C3CC3)cc2F)CCCN1c1cnc(C(N)=O)c(Nc2ccc3ncccc3c2)n1 [Example D-114, 5-[(2R,3R)-3-(4-cyclopropyl-2-fluorobenzamido)-2-methylpiperidin-1-yl]-3-[(quinolin-6-yl)amino]pyrazine-2-carboxamide] |
| 1000 to 10000 | 10 to 100 | Cc1cc(Nc2cc(N3CCC[C@@H](NC(=O)c4ccc(C5CC5)cc4F)[C@H]3C)cnc2C(N)=O)sn1 [Example D-116, 5-[(2R,3R)-3-(4-cyclopropyl-2-fluorobenzamido)-2-methylpiperidin-1-yl]-3-[(3-methyl-1,2-thiazol-5-yl)amino]pyridine-2-carboxamide] |
| 1000 to 10000 | 100 to 1000 | C[C@@H]1[C@H](NC(=O)c2ccc(C3CC3)cc2F)CCCN1c1cnc(C(N)=O)c(Nc2cnn(C)c2)c1 [Example D-117, 5-[(2R,3R)-3-(4-cyclopropyl-2-fluorobenzamido)-2-methylpiperidin-1-yl]-3-[(1-methyl-1H-pyrazol-4-yl)amino]pyridine-2-carboxamide] |
| > 10000 | 1000 to 10000 | Cc1nsc(Nc2nc(N3CCC[C@@H](NC(=O)N(C)C)[C@H]3C)cnc2C(N)=O)c1C [Example D-119, 3-[(dimethyl-1,2-thiazol-5-yl)amino]-5-[(2R,3R)-3-[(dimethylcarbamoyl)amino]-2-methylpiperidin-1-yl]pyrazine-2-carboxamide] |

— patent publication US20210070748A1, “INHIBITORS OF BRUTONS TYROSINE KINASE” (Pharmacyclics LLC, priority 2015, published 2021)
